Test results published in patent US20240239782A1, “SULFATE CRYSTALS OF MELANOCORTIN RECEPTOR AGONIST COMPOUND AND METHOD OF PRODUCING SAME” (LG CHEM, LTD., priority 2021, published 2024).

Protocol: Solubility indicates the result of measurement based on the final volume of water added to a sample when it is visually confirmed that the sample is completely dissolved by adding water to the sample. The solubility of the actual sample may be higher than the measured solubility. Solubility was measured based on the final volume of water added to a sample when it was visually confirmed that the sample was completely dissolved by adding water to the sample.

solubility: more than 56 mg/mL
SMILES: CC(C)C(=O)N([C@H]1C[C@@H](C(=O)N2CCOCC2)N(C(=O)[C@@H]2CN(C(C)(C)C)C[C@H]2c2ccc(Cl)cc2)C1)[C@H]1CC[C@@H](C)CC1.O=S(=O)(O)O [Example 2, N-((3S,5S)-1-((3S,4R)-1-(tert-butyl)-4-(4-chlorophenyl)pyrrolidine-3-carbonyl)-5-(morpholine-4-carbonyl)pyrrolidin-3-yl)-N-((1 s,4R)-4-methylcyclohexyl)isobutyramide sulfate]
